Consider two compounds from ChEMBL document CHEMBL4376854, “Investigation of the Adrenergic and Opioid Binding Affinities, Metabolic Stability, Plasma Protein Binding Properties, and Functional Effects of Selected Indole-Based Kratom Alkaloids” (J Med Chem, 2020).

The source made the active and inactive calls. The calls are words filed in the database; no cut-off is given here.

Series [1] deals with T1, Delta-type opioid receptor (Homo sapiens, UniProt P41143). Nature of the series: Displacement of [3H]DADLE from human recombinant delta opioid receptor expressed in rat Chem-1 (RBL) cell membranes at 100 nM incubated for 60 mins relative to control. Background: In a radioligand displacement assay an active substance lowers the binding of a labelled ligand.
T1 sequence (P41143 whole entry): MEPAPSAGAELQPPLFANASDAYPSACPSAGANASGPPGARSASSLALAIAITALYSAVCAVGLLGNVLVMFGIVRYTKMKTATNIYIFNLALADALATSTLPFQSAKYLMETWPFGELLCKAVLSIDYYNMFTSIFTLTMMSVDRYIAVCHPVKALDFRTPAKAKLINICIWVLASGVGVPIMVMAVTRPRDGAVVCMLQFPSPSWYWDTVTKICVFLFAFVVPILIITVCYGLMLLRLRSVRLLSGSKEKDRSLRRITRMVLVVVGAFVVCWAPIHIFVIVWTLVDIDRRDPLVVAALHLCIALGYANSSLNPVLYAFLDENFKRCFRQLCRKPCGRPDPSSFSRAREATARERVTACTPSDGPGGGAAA
Series [2] deals with T1, Delta-type opioid receptor. Nature of the series: Displacement of [3H]DADLE from human recombinant delta opioid receptor expressed in rat Chem-1 (RBL) cell membranes at 10000 nM incubated for 60 mins relative to control.
The subject of series [3] is Rattus norvegicus. Nature of the series: Antinociceptive activity in Sprague-Dawley rat dosed intravenously using cumulative dosing every 5 mins until rat maxed-out on hot plate by hot plate test relative to control. The series is classed as functional. (In hot-plate and tail-flick tests a longer latency is read as antinociception.)
The test system of series [4] is Rattus norvegicus. Nature of the series: Antinociceptive activity in Sprague-Dawley rat dosed intravenously using cumulative dosing every 5 mins until rat maxed-out on hot plate co-treated with 0.1 mg/kg naltrexone by hot plate test. Type of series: functional, organism-based.
Series [5] can be described thus: Toxicity in Sprague-Dawley rat assessed as induction of hypothermia at 0.0032 to 10 mg/kg, iv. Type of series: organism-based. Particulars: in vivo.
Series [6] addresses T2, Alpha-1A adrenergic receptor (Homo sapiens) (UniProt P35348).
T2 sequence (whole entry): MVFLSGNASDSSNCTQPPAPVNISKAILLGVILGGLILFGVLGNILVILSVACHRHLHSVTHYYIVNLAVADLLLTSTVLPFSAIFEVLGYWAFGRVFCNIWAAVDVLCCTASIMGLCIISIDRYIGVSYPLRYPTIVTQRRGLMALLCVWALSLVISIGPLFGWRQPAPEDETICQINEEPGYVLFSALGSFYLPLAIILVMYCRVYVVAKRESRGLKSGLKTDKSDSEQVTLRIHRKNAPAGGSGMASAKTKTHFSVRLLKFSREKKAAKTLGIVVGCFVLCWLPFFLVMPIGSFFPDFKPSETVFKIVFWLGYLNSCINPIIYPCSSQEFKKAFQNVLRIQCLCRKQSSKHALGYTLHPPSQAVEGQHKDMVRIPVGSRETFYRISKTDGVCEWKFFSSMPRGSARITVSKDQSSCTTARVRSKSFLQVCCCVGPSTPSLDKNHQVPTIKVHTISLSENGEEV
Particulars: CHO, 100 nM.

In series [7] the target is T3, Alpha-1D adrenergic receptor (Homo sapiens) (UniProt P25100).
T3 sequence (whole entry): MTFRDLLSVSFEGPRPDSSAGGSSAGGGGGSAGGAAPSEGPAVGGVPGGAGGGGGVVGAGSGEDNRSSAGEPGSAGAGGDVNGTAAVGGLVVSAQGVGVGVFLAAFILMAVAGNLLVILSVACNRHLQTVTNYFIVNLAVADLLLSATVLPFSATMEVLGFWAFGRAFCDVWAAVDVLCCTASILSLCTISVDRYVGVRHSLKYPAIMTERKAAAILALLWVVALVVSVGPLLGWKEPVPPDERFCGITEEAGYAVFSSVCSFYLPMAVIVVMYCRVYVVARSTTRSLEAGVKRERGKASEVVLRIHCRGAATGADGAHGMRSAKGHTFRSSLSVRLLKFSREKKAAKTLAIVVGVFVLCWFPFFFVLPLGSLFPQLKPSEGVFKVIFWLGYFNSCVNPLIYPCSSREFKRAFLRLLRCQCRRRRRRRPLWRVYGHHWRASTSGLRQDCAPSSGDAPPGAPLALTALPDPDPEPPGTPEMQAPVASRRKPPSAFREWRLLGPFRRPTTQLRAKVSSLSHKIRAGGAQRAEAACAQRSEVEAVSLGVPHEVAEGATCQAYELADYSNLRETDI
As to conditions: CHO, 100 nM.

Series [8] has as its target T2, Alpha-1A adrenergic receptor (Homo sapiens). As to conditions: CHO, 10000 nM.
Series [9] addresses T4, Alpha-1B adrenergic receptor (Homo sapiens) (UniProt P35368).
T4 sequence (whole entry): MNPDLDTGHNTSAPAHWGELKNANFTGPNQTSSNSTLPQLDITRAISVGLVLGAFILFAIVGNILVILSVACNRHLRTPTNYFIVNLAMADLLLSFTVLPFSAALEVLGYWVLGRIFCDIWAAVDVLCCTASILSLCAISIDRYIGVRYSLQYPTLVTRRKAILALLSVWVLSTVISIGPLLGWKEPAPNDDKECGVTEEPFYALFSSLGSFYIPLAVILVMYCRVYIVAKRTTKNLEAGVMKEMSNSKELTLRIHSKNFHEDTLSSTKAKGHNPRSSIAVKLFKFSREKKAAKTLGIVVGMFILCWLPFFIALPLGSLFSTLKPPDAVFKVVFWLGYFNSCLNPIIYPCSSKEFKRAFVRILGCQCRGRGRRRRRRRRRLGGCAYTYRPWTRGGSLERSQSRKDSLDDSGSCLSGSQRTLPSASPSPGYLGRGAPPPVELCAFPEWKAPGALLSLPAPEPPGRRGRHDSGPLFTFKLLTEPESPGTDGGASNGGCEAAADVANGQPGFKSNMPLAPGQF
Particulars: CHO, 10000 nM.

Series [10] addresses T5, Alpha-2A adrenergic receptor (Homo sapiens) (UniProt P08913).
T5 sequence (whole entry): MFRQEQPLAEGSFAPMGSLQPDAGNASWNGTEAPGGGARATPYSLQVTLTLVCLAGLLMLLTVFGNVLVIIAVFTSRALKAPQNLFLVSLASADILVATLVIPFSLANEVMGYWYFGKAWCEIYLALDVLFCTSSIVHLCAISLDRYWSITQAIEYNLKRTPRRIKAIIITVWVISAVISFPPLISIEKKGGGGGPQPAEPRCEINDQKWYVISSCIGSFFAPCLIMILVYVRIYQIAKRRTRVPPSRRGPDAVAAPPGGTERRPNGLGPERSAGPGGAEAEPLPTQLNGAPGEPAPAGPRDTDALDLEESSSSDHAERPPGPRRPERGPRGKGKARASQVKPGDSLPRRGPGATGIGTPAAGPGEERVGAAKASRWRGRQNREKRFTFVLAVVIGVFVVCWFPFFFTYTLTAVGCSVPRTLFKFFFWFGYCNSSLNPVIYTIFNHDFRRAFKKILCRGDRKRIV
As to conditions: CHO, 10000 nM.

Series [11] addresses Mu-type opioid receptor (Homo sapiens, UniProt P35372). As to conditions: HEK293, 10000 nM.
Series [12] deals with Nociceptin receptor (Homo sapiens) (UniProt P41146). As to conditions: 10000 nM.
Nociceptin receptor (Homo sapiens), sequence (P41146 whole entry): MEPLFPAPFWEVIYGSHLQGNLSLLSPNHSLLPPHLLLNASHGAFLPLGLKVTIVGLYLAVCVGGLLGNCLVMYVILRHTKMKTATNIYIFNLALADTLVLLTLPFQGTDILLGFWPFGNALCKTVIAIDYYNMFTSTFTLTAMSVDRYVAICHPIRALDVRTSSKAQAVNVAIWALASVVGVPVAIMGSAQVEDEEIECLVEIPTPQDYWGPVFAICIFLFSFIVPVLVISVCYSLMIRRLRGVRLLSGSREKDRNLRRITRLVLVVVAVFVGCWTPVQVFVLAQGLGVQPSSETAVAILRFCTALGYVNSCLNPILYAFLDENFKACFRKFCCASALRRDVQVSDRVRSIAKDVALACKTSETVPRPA
For series [13] the following is noted: human, microsomes, 1 h.
For series [14] the following is noted: human, plasma, 1 µM.
For series [15] the following is noted: human, microsomes, 1 µM.

Mu-type opioid receptor, sequence (P35372 whole entry): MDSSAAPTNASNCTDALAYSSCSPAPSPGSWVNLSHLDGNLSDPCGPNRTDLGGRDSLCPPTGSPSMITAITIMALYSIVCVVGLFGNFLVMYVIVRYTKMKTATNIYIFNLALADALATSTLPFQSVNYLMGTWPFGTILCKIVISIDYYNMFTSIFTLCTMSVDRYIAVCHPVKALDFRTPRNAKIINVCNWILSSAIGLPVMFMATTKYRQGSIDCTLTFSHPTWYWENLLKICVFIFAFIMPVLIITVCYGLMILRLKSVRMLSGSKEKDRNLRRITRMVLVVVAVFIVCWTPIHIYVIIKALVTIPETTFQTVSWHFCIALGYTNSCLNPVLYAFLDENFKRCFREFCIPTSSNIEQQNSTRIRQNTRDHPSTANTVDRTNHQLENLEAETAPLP

As usually defined, the inhibition is the relative decrease from the control value, in per cent. As for `CC[C@@H]1CN2CCc3c([nH]c4cccc(OC)c34)[C@H]2C[C@@H]1/C(=C\OC)C(=O)OC`, the inhibition in series [1] was determined as 0.6%; in [2], 69.2%; in series [6], 16.8%; in [7], 6.3%; in series [8], 81.1%; in series [9], 95.6%. The inhibition in [10] is 73.1%; in series [11], 98%; in series [12], 31.8%. In series [3], this compound had an MPE of 100%. The result in series [4] was inactive. The Activity entry in series [5] is reported as “Toxic”. In series [13], this compound yielded a Kel of 0.0166 min⁻¹. The Fu in series [14] came to 0.01; in series [15], 0.276.

As a reminder, the Emax is the size of the effect at its maximum, as opposed to the concentration needed. With `CC[C@@H]1CN2CCc3c([nH]c4cccc(OC)c34)[C@@H]2C[C@@H]1/C(=C\OC)C(=O)OC`, the inhibition is 0.4% in [1]; 18.3% in series [2]; 13.2% in series [6]; -2.1% in series [7]; 83.5% in series [8]; 40.3% in [9]. The inhibition in [10] was 40.4%; in series [11], 93.7%; in series [12] it was 40.8%. The compound further had an Emax in series [3] (Rattus norvegicus, Sprague-Dawley, iv, 5 min) of 17.3%. Moreover, the result in [4] was inactive. Besides, the Activity result in [5] is recorded as “Non-Toxic”. The Kel in series [13] amounted to 0.0347 min⁻¹. Further, the Fu is 0.02 in series [14] and 0.307 in series [15].
